Here are results for one compound from article PMC13379085 (PLOS Neglected Tropical Diseases, 2026).

SMILES strings stand for the structures.

The target in test [1] is T1, lysozyme (Homo sapiens, UniProt P61626).
T1 sequence (P61626 19-148): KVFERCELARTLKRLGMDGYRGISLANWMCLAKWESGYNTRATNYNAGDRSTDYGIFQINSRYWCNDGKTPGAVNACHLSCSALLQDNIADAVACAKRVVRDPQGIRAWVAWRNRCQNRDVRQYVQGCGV
In words: Affinity capture proteomics with 197-bead in Leishmania infected macrophage lysate. The class given is binding. More on the design: endogenous in cells; host or cells: PMA-differentiated THP-1 macrophages infected with L. mexicana (lysate). The note with it: 197-bead vs control bead. The method, then:
To generate cell lysate, ten million THP-1 cells were plated overnight in a 10 cm dish, then differentiated with 150 nM phorbol 12-myristate 13-acetate (PMA) for 72 hours. The resulting macrophages were infected with L. mexicana promastigotes at a multiplicity of infection of 1:10 and incubated for 18 hours. After infection, cells were washed three times with PBS to remove extracellular promastigotes. Cells were then collected by scraping and pelleted with centrifugation. The cell pellet was resuspended in cell buffer (50mM Tris-HCl, 150mM NaCl, 2mM EDTA, 0.5% triton-x-100) and subjected to five freeze-thaw cycles. Samples were centrifuged 14,000g x 10 minutes to remove cellular debris. Protein concentration of supernatant was determined by BCA assay and cell lysate was stored at -80 ° C until further use.
Functionalized agarose beads were made as follows. NHS activated agarose beads were washed three times to remove acetone and resuspended in PBS to create a slurry. 494 (197 with ligation chemical handle) was prepared in 0.3 mL at 25mM in DMSO and 1.7 mL PBS was added to 1 mL of agarose slurry for a final volume of 3 mL at a concentration of 2.5mM (10% v/v DMSO). […]
The peptide samples were resuspended in 15 μL of 5% ACN/0.1% formic acid and analyzed by LC-MS/MS using an Easy nLC 1200 coupled to a QExactive HF mass spectrometer (Thermo Scientific). […]

Test [2] has as its target T1, lysozyme. In words: Fluorometric lysozyme activity assay. The class given is biochemical. The note with it: lysozyme 1mg/mL; 0, 1, and 50 µM 197. Further details: purchased Sigma L1667. On the procedure: Recombinant human lysozyme protein (1mg/mL, Sigma, Cat # L1667) was incubated with 0 µM, 1 µM or 50 µM 197. Lysozyme activity was measured via a fluorometric assay (Abcam, Cat # ab211113) according to manufacturer’s protocol.

A further test has as its system LV82 L. donovani. In words: Giemsa staining of intracellular L. donovani in BMDMs from wildtype C57BL/6 or lysozyme knockout mice. The class given is cell-based, Leishmania donovani. As to conditions: 72-hour incubation. From the text: B6.129P2-Lyz2^tm1(cre)Ifo/J mice (stock #004781, herein termed ‘Lys K/O’) were obtained from Jackson Laboratory. This strain has a nuclear-localized Cre recombinase inserted into the first coding ATG of the lysozyme 2 gene (Lyz2) which eliminates endogenous Lyz2 gene function. Wildtype C57BL6/J mice (stock #000664) were obtained as a control.
Bone marrow derived macrophages (BMDMs) were isolated from both mice and cultured as described above in “Image-based Evaluation of Intracellular Anti-Leishmanial Activity”. BMDMs were seeded onto glass cover slips, infected with LV82 L. donovani at a multiplicity of infection of 1:10. Cells were washed to remove extracellular promastigotes and treated with compounds (197, amphotericin B) for a 72-hour incubation. BMDM cells were then washed with phosphate buffered saline, fixed with ice-cold methanol, and stained with Giemsa (5% v/v in water). The cover slips with stained cells are mounted onto glass slides and imaged on EVOS XL (100X, Thermo Fisher Scientific). Leishmania amastigotes per 100 macrophages were determined in a blinded manner.

With `O=C(CNCc1cccc(F)c1)Nc1ccc(-n2cc(C(F)(F)F)nc2-c2ccc(-c3ccc(C(F)(F)F)cc3)cc2)cc1` [Compound 197], the “affinity capture abundance of lysozyme, Log2 fold change” value on lysozyme [1] came to 6.57. On lysozyme [2], the lysozyme activity entry is “dose-dependent increase”. Moreover, the “anti-leishmanial activity in WT and Lys K/O BMDMs” value in the test on LV82 L. donovani is given as “notably decreased in Lys K/O BMDMs”.
